Source: BindingDB's records for doi:10.1021/jm970326r (University of Minnesota, 1998)

How the values were obtained:
[1] = target: Sigma non-opioid intracellular receptor 1 (Cavia porcellus) (UniProt Q60492); assay: Sigma-1 binding assay was done in guinea pig membranes by labeling the binding site with [3H](+)-pentazocine
[2] = Sigma-1 binding assay was done in guinea pig membranes by labeling the binding site with [3H](+)-pentazocine.
[3] = target: Vesicular acetylcholine transporter (Torpedo); assay: Binding to vesicular acetylcholine transporter of torpedo synaptic vesicles

Sigma non-opioid intracellular receptor 1 (Cavia porcellus), sequence (Q60492 whole entry, looked up): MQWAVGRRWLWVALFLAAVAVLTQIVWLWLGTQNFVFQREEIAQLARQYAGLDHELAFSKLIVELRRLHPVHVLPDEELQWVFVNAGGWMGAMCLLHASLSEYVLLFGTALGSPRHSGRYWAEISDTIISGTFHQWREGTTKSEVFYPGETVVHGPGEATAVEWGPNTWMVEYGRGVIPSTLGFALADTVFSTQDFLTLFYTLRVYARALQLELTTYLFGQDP

Compound | Ki [1] [nM] | Ki [2] [nM] | Ki [3] [nM]
O=C(CCCN1C2CCC1CC(c1ccccc1)C2)c1ccc(F)cc1 (stereo not given) | 34.1 | – | –
OC(CN1C2CCC1CC(c1ccccc1)C2)c1c(Cl)cccc1Cl (stereo not given) [1-(2,6-Dichloro-phenyl)-2-(3-phenyl-8-aza-bicyclo[3.2.1]oct-8-yl)-ethanol] | 302 | – | –
OC(CN1C2CCC1CC(c1ccccc1)C2)c1ccccc1Br (stereo not given) [1-(2-Bromo-phenyl)-2-(3-phenyl-8-aza-bicyclo[3.2.1]oct-8-yl)-ethanol] | – | 95.7 | 130
OC(CN1C2CCC1CC(c1ccccc1)C2)c1ccc(Cl)c(Cl)c1 (stereo not given) [1-(3,4-Dichloro-phenyl)-2-(3-phenyl-8-aza-bicyclo[3.2.1]oct-8-yl)-ethanol] | 249 | – | 60
OC(CN1C2CCC1CC(c1ccccc1)C2)c1cccc(Br)c1 (stereo not given) [1-(3-Bromo-phenyl)-2-(3-phenyl-8-aza-bicyclo[3.2.1]oct-8-yl)-ethanol] | 117 | – | –
CN1CC2(CCN([C@@H]3CN(Cc4cccc(I)c4)CC[C@H]3O)CC2)c2ccccc21 [1-(3-Iodobenzyl)-3-[1-methylspiro[2,3-dihydro-1H-indole-3,4'-(hexahydropyridine)]-1-yl]-(3R,4R)-hexahydro-4-pyridinol] | 122 | – | 17
O[C@@H]1CCN(Cc2cccc(I)c2)C[C@H]1N1CCC2(CCc3ccccc32)CC1 [1-(3-iodobenzyl)-3-spiro[2,3-dihydro-1H-indene-1,4'-(hexahydropyridine)]-1-yl-(3R,4R)-hexahydro-4-pyridinol] | 283 | – | –
OC(CN1C2CCC1CC(c1ccccc1)C2)c1ccc(Br)cc1 (stereo not given) [1-(4-Bromo-phenyl)-2-(3-phenyl-8-aza-bicyclo[3.2.1]oct-8-yl)-ethanol] | 17.5 | – | 144
OC(CN1CCC(c2ccccc2)CC1)c1ccc(Br)cc1 (stereo not given) [1-(4-Bromo-phenyl)-2-(4-phenyl-piperidin-1-yl)-ethanol] | – | – | 30
OC(Cc1ccc(Br)cc1)CN1C2CCC1CC(c1ccccc1)C2 (stereo not given) [1-(4-Bromo-phenyl)-3-(3-phenyl-8-aza-bicyclo[3.2.1]oct-8-yl)-propan-2-ol] | 30.9 | – | –
O=C(CN1C2CCC1CC(c1ccccc1)C2)c1ccc(F)cc1 (stereo not given) [1-(4-Fluoro-phenyl)-2-(3-phenyl-8-aza-bicyclo[3.2.1]oct-8-yl)-ethanone] | 281 | – | 3400
OC(CCCN1C2CCC1CC(c1ccccc1)C2)c1ccc(F)cc1 (stereo not given) [1-(4-Fluoro-phenyl)-4-(3-phenyl-8-aza-bicyclo[3.2.1]oct-8-yl)-butan-1-ol] | – | – | 380
O[C@@H]1CCN(Cc2ccc(F)cc2)C[C@H]1N1CCC2(CCc3ccccc32)CC1 [1-(4-fluorobenzyl)-3-spiro[2,3-dihydro-1H-indene-1,4'-(hexahydropyridine)]-1-yl-(3R,4R)-hexahydro-4-pyridinol] | 25 | – | 0.36
CN1CC2(CCN(CCCC(=O)c3ccc(F)cc3)CC2)c2ccccc21 [1-(4-fluorophenyl)-4-[1-methylspiro[2,3-dihydro-1H-indole-3,4'-(hexahydropyridine)]-1-yl]-1-butanone] | 110 | – | –
O=C(CCCN1CCC2(CCc3ccccc32)CC1)c1ccc(F)cc1 [1-(4-fluorophenyl)-4-spiro[2,3-dihydro-1H-indene-1,4'-(hexahydropyridine)]-1-yl-1-butanone] | 1.8 | – | –
OC(CN1C2CCC1CC(c1ccccc1)C2)c1ccccc1 (stereo not given) [1-Phenyl-2-(3-phenyl-8-aza-bicyclo[3.2.1]oct-8-yl)-ethanol] | – | – | 474
O[C@@H]1Cc2ccccc2C[C@H]1N1CCC2(CCc3ccccc32)CC1 [3-spiro[2,3-dihydro-1H-indene-1,4'-(hexahydropyridine)]-1-yl-(2R,3R)-1,2,3,4-tetrahydro-2-naphthalenol] | – | – | 0.36
CN1CC2(CCN(C[C@H](O)c3cccc(Br)c3)CC2)c2ccccc21 [(1R)-1-(3-bromophenyl)-2-(1-methyl-1,2-dihydro-1'H-spiro[indole-3,4'-piperidin]-1'-yl)ethanol] | 518 | – | 182
O[C@@H](CN1CCC2(CCc3ccccc32)CC1)c1cccc(Br)c1 [(1R)-1-(3-bromophenyl)-2-(2,3-dihydro-1'H-spiro[indene-1,4'-piperidin]-1'-yl)ethanol] | 107 | – | 600
CN1CC2(CCN([C@@H]3CCCC[C@H]3O)CC2)c2ccccc21 [(1R,2R)-2-(1-methyl-1,2-dihydro-1'H-spiro[indole-3,4'-piperidin]-1'-yl)cyclohexanol] | 286 | – | 74
O[C@@H]1CCCC[C@H]1N1CCC2(CCc3ccccc32)CC1 [(1R,2R)-2-(2,3-dihydro-1'H-spiro[indene-1,4'-piperidin]-1'-yl)cyclohexanol] | 21 | – | 7.6
O[C@H]1CCCC[C@@H]1N1C2CCC1CC(c1ccccc1)C2 (stereo partly drawn) [(1S,2S)-2-(3-Phenyl-8-aza-bicyclo[3.2.1]oct-8-yl)-cyclohexanol] | 380 | – | –
CN1CC2(CCN(C[C@H](O)Cc3ccc(Br)cc3)CC2)c2ccccc21 [(2R)-1-(4-bromophenyl)-3-{1-methyl-1,2-dihydrospiro[indole-3,4'-piperidine]-1'-yl}propan-2-ol] | 191 | – | 420
O[C@H](Cc1ccc(Br)cc1)CN1CCC2(CCc3ccccc32)CC1 [(2R)-1-(4-bromophenyl)-3-{2,3-dihydrospiro[indene-1,4'-piperidine]-1'-yl}propan-2-ol] | – | – | 86
O[C@H]1Cc2ccccc2C[C@@H]1N1C2CCC1CC(c1ccccc1)C2 (stereo partly drawn) [(2S,3S)-3-(3-Phenyl-8-aza-bicyclo[3.2.1]oct-8-yl)-1,2,3,4-tetrahydro-naphthalen-2-ol] | 175 | – | 8.5
O[C@H]1CCN(Cc2cccc(I)c2)C[C@@H]1N1C2CCC1CC(c1ccccc1)C2 (stereo partly drawn) [(3S,4S)-1-(3-Iodo-benzyl)-3-(3-phenyl-8-aza-bicyclo[3.2.1]oct-8-yl)-piperidin-4-ol] | 194 | – | –
O[C@H]1CCN(Cc2ccc(F)cc2)C[C@@H]1N1C2CCC1CC(c1ccccc1)C2 (stereo partly drawn) [(3S,4S)-1-(4-Fluoro-benzyl)-3-(3-phenyl-8-aza-bicyclo[3.2.1]oct-8-yl)-piperidin-4-ol] | 240 | – | 325
